Data: patent US5567716A, “Trans and cis traumatic acid salts having cicatrizant activity associated to bacteriostatic, antiviral, antibiotic or antifungal activity” (priority 1992, dated 1996)
Where two headings read alike, the source gives them in different places.

Columns and labels:
B.subtilis ATCC 6633 = assay: Evaluation of bacteriostatic minimal concentration (BMC); type: cell-based; details: test concentrations given in μg/ml; for MINIMAL BACTERIAL CONCENTRATION: Table 2.b)5
Experimental: (§1) 1. Culture Medium: Tryprone Soy Broth (TBS) - Biogenetics
(§2) Microbic standard strains from American Type Culture Collection (ATCC) were used, chosen among aerobic Gram positive and negative as follows:
(§3) The broths culture of the different species are prepared growing the standard strain (kept in Tryptic Soy Agar (TSA) slent at 5° C.) in Tryptone Soy Broth (TSB) for 12 hours at 37° C. 10 ml are then taken up from each culture, centrifugated for 3 times at 3500 PM washing each time the sediment using 10 ml of sterile saline solution. The sediment is resuspended in the saline solution until obtainment of a turbidity corresponding to the Mc Farland standard solution (the suspension title must be […] UFC/ml).
(§4) The compounds, dissolved as stock solution, were added to test tubes containing 5 ml TBS in order to obtain the desired Final concentration 10000; 5000; 1000; 200; 40; 2; 0.4; 0.05 μg/ml (culture medium maximal dilution=1/10).
(§5) 50 μl of bacterial suspension are added to the tube containing the compounds to be tested and incubated at 37° C.: the densitometric determination is made in comparison with Mc Farland standard solution 24 and 48 hours later.
(§6) After the incubation time the suspensions ape gently agitated; 50 μl of each suspension are inoculated in tubes containing […] of TSB and incubated at 37° C.; the densitometric determination is made 48 hours later.
(§7) BMC is defined by comparison between the two densitometric evaluation.

C.albicans ATCC 10231 = assay: as above; type: cell-based; details: test concentrations given in μg/ml; for MINIMAL BACTERIAL CONCENTRATION: Table 2.b)6
Experimental: as §1, §2, §3, §4, §5, §6, §7

Ps.aeruginosa ATCC 35422 = assay: as above; type: cell-based; details: for MINIMAL BACTERIAL CONCENTRATION: Table 2.b)1, test concentrations given in μg/ml
Experimental: as §1, §2, §3, §4, §5, §6, §7

St.aureus ATCC 65380 = assay: as above; type: cell-based; details: for MINIMAL BACTERIAL CONCENTRATION: Table 2.b)2, test concentrations given in μg/ml
Experimental: as §1, §2, §3, §4, §5, §6, §7

[1] = system: St.epidermidis ATCC 14990; assay: as above; type: cell-based; details: test concentrations given in μg/ml; for MINIMAL BACTERIAL CONCENTRATION: Table 2.b)4
Experimental: as §1, §2, §3, §4, §5, §6, §7

[2] = for organic solvent solubility: dmso
E.coli ATCC 35218 = assay: microbe, parasite or virus in culture; type: cell-based; details: for MINIMAL BACTERIAL CONCENTRATION: Table 2.b)3, test concentrations given in μg/ml
Experimental: as §1, §2, §3, §4, §5, §6, §7

Balb/C 3T3 fibroblasts = assay: Cell growth of Balb/C 3T3 fibroblasts, crystal violet colorimetry (1.1b); type: cell-based, Mouse; details: for promotion of cell growth: 10^-5 to 10^-7 M, lincomycin > rolitetracycline > erythromycin salt; for promotion of cell growth / cell growth effect compared to traumatic acid: in words; for cell growth t2/t1: 48 h/24 h, control 76.776
Experimental: Mouse Balb/C 3T3 fibroblasts were grown in DMEM medium supplemented with penicillin (100 units/ml) and streptomycin (0.1 mg/ml). For experimental purposes, cells are routinely inoculated in […] diameter culture dishes (5000cells/dish) and cultured overnight.
The compounds to be tested are solubilized in DMEM+10%FCS and DMSO to obtain the final concentration of 10^-5 M, 10^-6 M e 10^-7 M in 0.05% DMSO.
The cells number is measured 4, 24 and 48 hours after seeding. The cell growth is evaluated as t2/t1 ratio (%).

[3] = Physical chemical characteristics: solubility in water and organic solvents
[4] = 4 h (t0), 10^-5M, control 0.300
[5] = 4 h (t0), 10^-6M, control 0.300
[6] = 4 h (t0), 10^-7M, control 0.300
[7] = 24 h (t1), 10^-5M, control 0.481
[8] = 24 h (t1), 10^-6M, control 0.481
[9] = 24 h (t1), 10^-7M, control 0.481
[10] = 48 h (t2), 10^-5M, control 0.849
[11] = 48 h (t2), 10^-6M, control 0.849
[12] = 48 h (t2), 10^-7M, control 0.849

Molecule	MINIMAL BACTERIAL CONCENTRATION (B.subtilis ATCC 6633)	MINIMAL BACTERIAL CONCENTRATION (C.albicans ATCC 10231)	MINIMAL BACTERIAL CONCENTRATION (Ps.aeruginosa ATCC 35422)	MINIMAL BACTERIAL CONCENTRATION (St.aureus ATCC 65380)	MINIMAL BACTERIAL CONCENTRATION [1]	organic solvent solubility [2] [µg/mL]	MINIMAL BACTERIAL CONCENTRATION (E.coli ATCC 35218)	promotion of cell growth (Balb/C 3T3 fibroblasts)	Cell density (Balb/C 3T3 fibroblasts; [4])	Cell density (Balb/C 3T3 fibroblasts; [5])	Cell density (Balb/C 3T3 fibroblasts; [6])	Cell density (Balb/C 3T3 fibroblasts; [7])	Cell density (Balb/C 3T3 fibroblasts; [8])	Cell density (Balb/C 3T3 fibroblasts; [9])	Cell density (Balb/C 3T3 fibroblasts; [10])	Cell density (Balb/C 3T3 fibroblasts; [11])	Cell density (Balb/C 3T3 fibroblasts; [12])	cell growth t2/t1 (Balb/C 3T3 fibroblasts; 10^-5M) [%]	cell growth t2/t1 (Balb/C 3T3 fibroblasts; 10^-6M) [%]	cell growth t2/t1 (Balb/C 3T3 fibroblasts; 10^-7M) [%]	further results
NC(=NCCCCCCN=C(N)N=C(N)Nc1ccc(Cl)cc1)N=C(N)Nc1ccc(Cl)cc1.O=C(O)/C=C/CCCCCCCCC(=O)O [Chlorhexidine Traumatate, chlorhexidine trans-traumatate]	2.00	2.00	40.00	8.00	2.00	> 10000	8.00														
CC[C@H]1OC(=O)[C@H](C)[C@@H](O[C@H]2C[C@@](C)(OC)[C@@H](O)[C@H](C)O2)[C@H](C)[C@@H](O[C@@H]2O[C@H](C)C[C@H](N(C)C)[C@H]2O)[C@](C)(O)C[C@@H](C)C(=O)[C@H](C)[C@@H](O)[C@]1(C)O.CC[C@H]1OC(=O)[C@H](C)[C@@H](O[C@H]2C[C@@](C)(OC)[C@@H](O)[C@H](C)O2)[C@H](C)[C@@H](O[C@@H]2O[C@H](C)C[C@H](N(C)C)[C@H]2O)[C@](C)(O)C[C@@H](C)C(=O)[C@H](C)[C@@H](O)[C@]1(C)O.O=C(O)/C=C/CCCCCCCCC(=O)O [Erythromycin Traumatate, Erythromycin trans-traumatate]	1,000.00	> 10,000	10,000.00	10,000.00			10,000.00	capable to promote cell growth at all the tested doses	0.370	0.352	0.344	0.365	0.369	0.368	0.919	0.921	1.074	159.16	148.64	196.81	cell growth effect compared to traumatic acid (Balb/C 3T3 fibroblasts): more consistent if compared to the corresponding one of the parent compound traumatic acid; organic solvent solubility ([3]; in DMSO): > 10000 µg/mL; organic solvent solubility ([3]; in ethanol): > 10000 µg/mL; water solubility ([3]; water, in words): poorly soluble
NC[C@H]1O[C@H](O[C@H]2[C@H](O)[C@@H](O[C@H]3O[C@H](CO)[C@@H](O)[C@H](N)[C@H]3O)[C@H](N)C[C@@H]2N)[C@H](N)C[C@@H]1O.NC[C@H]1O[C@H](O[C@H]2[C@H](O)[C@@H](O[C@H]3O[C@H](CO)[C@@H](O)[C@H](N)[C@H]3O)[C@H](N)C[C@@H]2N)[C@H](N)C[C@@H]1O.O=C(O)/C=C/CCCCCCCCC(=O)O.O=C(O)/C=C/CCCCCCCCC(=O)O.O=C(O)/C=C/CCCCCCCCC(=O)O.O=C(O)/C=C/CCCCCCCCC(=O)O.O=C(O)/C=C/CCCCCCCCC(=O)O [Tobramycin Traumatate, tobramycin trans-traumatate]			5,000	1,000.00		> 10000	200.00														solubility in water ([2]; water): > 10000 µg/mL
O=C([O-])/C=C/CCCCCCCCC(=O)[O-].[Zn+2] [Zinc Traumatate, zinc trans-traumatate]																					MIC (B.subtilis ATCC 6633; Bacillus subtilis, ATCC6633; Table 2.b)5, read-out: MINIMAL BACTERIAL CONCENTRATION): > 10000 µg/mL; MIC (C.albicans ATCC 10231; Candida albicans, ATCC10231; Table 2.b)6, read-out: MINIMAL BACTERIAL CONCENTRATION): > 10000 µg/mL; MIC (Ps.aeruginosa ATCC 35422; Pseudomonas aeruginosa, ATCC35422, read-out: MINIMAL BACTERIAL CONCENTRATION): > 10000 µg/mL; MIC (St.aureus ATCC 65380; Staphylococcus aureus, ATCC65380, read-out: MINIMAL BACTERIAL CONCENTRATION): > 10000 µg/mL; MIC ([1]; Staphylococcus epidermidis, ATCC14990; Table 2.b)4, read-out: MINIMAL BACTERIAL CONCENTRATION): > 10000 µg/mL; solubility ([3]; 5% nh3): > 10000 µg/mL; organic solvent solubility ([3]; in DMSO, in words): poorly soluble; organic solvent solubility ([3]; in ethanol, in words): poorly soluble; water solubility ([3]; water, in words): poorly soluble; MIC (E.coli ATCC 35218; Escherichia coli, ATCC35218, read-out: MINIMAL BACTERIAL CONCENTRATION): > 10000 µg/mL
rolitetracycline trans-traumatate [Rolitetracycline Traumatate]	40.00	1,000.00	10,000.00	5,000.00	200.00		1,000.00	capable to promote cell growth at all the tested doses	0.46	0.475	0.482	0.255	0.356	0.287	0.678	0.660	0.828	166.39	186.69	185.44	cell growth effect compared to traumatic acid (Balb/C 3T3 fibroblasts): more consistent if compared to the corresponding one of the parent compound traumatic acid; organic solvent solubility ([3]; in DMSO): > 10000 µg/mL; solubility in water ([3]; water): > 10000 µg/mL
silver trans-traumatate [Silver Traumatate]	200.00	> 10,000	40.00	40.00	200.00		40.00														solubility in 5% NH3 ([2]; 5% nh3): > 10000 µg/mL
